The source of these data is patent publication US20080021002A1, “VITAMIN D COMPOUNDS USED TO STABILIZE KIDNEY TRANSPLANTS” (priority 2000, published 2008).

Data set [1] has as its system kidney or kidney-pancreas transplant recipients. As to conditions: human, in vivo. The text has this: Methodology-retrospective analysis: The University of Wisconsin transplant database was screened to identify any kidney and/or kidney-pancreas transplant recipient who received 1,25-dihydroxyvitamin D3 (calcitriol)peri-post-transplant. Clinical and demographic variables were abstracted from the database. Those patients with adequate follow-up data were included in the analysis (≧1year follow-up data following the initiation of calcitriol). Demographic variables included race, age, and nay history of parathyroidectomy as these patients would likely be receiving calcitriol at time of transplantation. The effect of calcitriol treatment on renal function was analyzed using general linear mixed modeling of the change in slope of renal function prior to and following the start of calcitriol therapy. […] Adverse events and hypercalcemia were noted by identifiers in the database and by serum calcium levels as recorded in the database. Hypercalcemia was defined as a serum calcium >10.5 mg/dl.
The mean serum calcium in Group 1 and Group 2 patients was <10 mg/dl (9.6±0.9 mg/dl). There were no episodes of sustained hypercalcemia (>2 serial hypercalcemia values noted) or hypercalcemia events requiring hospitalization. There were no episodes of substained hematuria that could be directly attributable to hypercalcemia.

A further data set relates to Smad 3 protein. Kind of data set: Western blot of renal graft lysates, Smad 3 protein. As to conditions: allogeneic recipients regardless of treatment, vs syngeneic controls (data not shown). It counts as in vivo, rat. The text has this:
Renal lysates were subjected to SDS-PAGE and transferred to nitrocellulose membranes. The membranes were probed with specific anti-Smad antibodies and appropriated HRP-conjugated secondary antibodies. Signal was detected with chemilumensnce. Following exposure, x-ray films were scanned and the amount of expression compared to that of tubulin as an internal control using Scion Image software. FIG. 4 (A) describes R-Smad expression. FIG. 4 (B) described I-Smad expression.
Western Blot Analysis: A portion of the snap frozen graft containing both cortex and medulla was ground with a mortar and pestle. For each 100 mg of tissue, the sample was resuspened in 400 ul of lysis buffer (10 mM Tris base, 150 mM NaCl, pH 8.0) containing protease inhibitors (P2714 1:1000. Sigma Chemical Co., St. Louis, Mo.) and homogenized (PowerGen 125, 1 minute). Triton X100 was then added to 1% and the sample place on ice, for 30 minutes. The solubilized sample was then spun at 4° C. for 15 minutes at 15,000×G. The supernatant was collected and stored at −80° C. Sample protein concentrations were determined using the Micro BCA assay (Pierce Chemical Co., Rockford, Ill.) according to manufacturer=s instructions, except that the assay was performed in half area plates combining 35 μl sample with 70 µl of reagent. […]
Background: In western blotting, separated proteins are transferred to a membrane and probed.

As for `C=C1/C(=C\C=C2/CCC[C@]3(C)[C@@H]([C@H](C)CCCC(C)(C)O)CC[C@@H]23)C[C@@H](O)C[C@@H]1O` [calcitriol, 1,25-dihydroxyvitamin D3], the “Episodes of sustained hematuria attributable to hypercalcemia” value in data set [1] is “no episodes”. Moreover, the “Smad 3 protein levels” value with Smad 3 protein is reported as “similar”.
